Measured values published in ChEMBL document CHEMBL5038651, “Design, Synthesis, and Biological Evaluation of 2-((4-Bisarylmethyl-piperazin-1-yl)methyl)benzonitrile Derivatives as HCV Entry Inhibitors” (J Med Chem, 2022).
The source made the active and inactive calls. The rule behind the calls is not given here.

Legend:
[1] = tested on: Hepatitis C virus; experiment: Antiviral activity against HCV infected in human Huh7.5 cells incubated for 72 hrs by in-cell western assay; type: functional, organism-based, Hepacivirus hominis; conditions: Huh7.5, 72 h
[2] = Cytotoxicity against human Huh7.5 cells assessed as reduction in cell viability incubated for 96 hrs by MTT assay; type: toxicity, cell-based, Huh-7.5; conditions: Huh7.5 cells
[3] = Selectivity index, ratio of CC50 for cytotoxicity against human Huh7.5.1 cells to EC50 for antiviral activity against HCV infected in human Huh7.5.1 cells; type: toxicity, cell-based
[4] = tested on: Hepatitis C virus; experiment: Antiviral activity against HCV infected in human Huh7.5 cells assessed as reduction in HCV core protein expression at 6.4 nM incubated for 72 hrs by in-cell western assay; type: functional, organism-based; conditions: Hepacivirus hominis
[5] = tested on: Hepatitis C virus; experiment: Antiviral activity against HCV infected in human Huh7.5 cells assessed as reduction in HCV core protein expression preincubated for 2 hrs followed by viral infection and measured after 72 hrs by Western blotting analysis; type: functional, organism-based; conditions: Hepacivirus hominis, time 74.0 hrs
[6] = tested on: Hepatitis C virus; experiment: Antiviral activity against HCV infected in human Huh7.5 cells assessed as reduction in viral RNA level preincubated for 2 hrs prior to viral infection and measured after 72 hrs by RT-qPCR analysis; type: functional, organism-based; conditions: Hepacivirus hominis, time 74.0 hrs
[7] = tested on: Hepatitis C virus; experiment: Antiviral activity against HCV infected in human Huh7.5 cells carrying HCV subgenomic replicons assessed as inhibition of viral replication at 1.4 uM; type: functional, organism-based; conditions: Hepacivirus hominis
[8] = Selectivity index, ratio of CC50 for cytotoxicity against human Huh7.5 cells infected with HCVcc to EC50 for antiviral activity against HCVcc infected in human Huh7.5 cells; type: toxicity, cell-based; conditions: read-out: Ratio CC50/EC50
[9] = biological target: Histamine H1 receptor (Homo sapiens) (UniProt P35367); experiment: Antagonist activity against H1 receptor (unknown origin) expressed in HEK cells at 1 uM relative to control; type: functional, cell-based
Sequence of Histamine H1 receptor (Homo sapiens) (P35367 whole entry): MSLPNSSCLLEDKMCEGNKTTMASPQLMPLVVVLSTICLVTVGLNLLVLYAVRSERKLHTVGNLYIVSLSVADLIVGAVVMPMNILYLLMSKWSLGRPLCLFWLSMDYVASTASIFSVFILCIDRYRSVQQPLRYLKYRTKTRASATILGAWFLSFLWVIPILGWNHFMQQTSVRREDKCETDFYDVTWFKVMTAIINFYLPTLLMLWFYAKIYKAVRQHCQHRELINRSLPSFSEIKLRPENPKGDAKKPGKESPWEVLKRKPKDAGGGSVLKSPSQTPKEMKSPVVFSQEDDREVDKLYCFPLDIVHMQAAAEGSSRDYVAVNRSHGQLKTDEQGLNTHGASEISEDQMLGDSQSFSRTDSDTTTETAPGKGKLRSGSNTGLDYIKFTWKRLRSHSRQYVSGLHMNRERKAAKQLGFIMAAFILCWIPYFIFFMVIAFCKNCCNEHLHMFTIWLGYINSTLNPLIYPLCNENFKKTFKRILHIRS

[10] = tested on: Hepatitis C virus; experiment: Antiviral activity against HCV infected in human Huh7.5 cells assessed as reduction in HCV core protein expression pre-infected with virus for 2 hrs followed by compound addition and measured after 72 hrs by Western blotting analysis; type: functional, organism-based; conditions: Hepacivirus hominis
[11] = tested on: Hepatitis C virus; experiment: Antiviral activity against HCV infected in human Huh7.5 cells assessed as reduction in viral RNA level measured after 72 hrs by RT-qPCR analysis; type: functional, organism-based; conditions: Hepacivirus hominis
[12] = tested on: Hepatitis C virus; experiment: Antiviral activity against HCV infected in human Huh7.5 cells assessed as reduction in viral RNA level pre-infected with virus for 2 hrs followed by compound addition and measured after 72 hrs by RT-qPCR analysis; type: functional, organism-based; conditions: Hepacivirus hominis
[13] = tested on: Hepatitis C virus; experiment: Antiviral activity against HCV infected in human Huh7.5 cells assessed as reduction in HCV core protein expression measured after 72 hrs by Western blotting analysis; type: functional, organism-based; conditions: Hepacivirus hominis
[14] = Tmax in Sprague-Dawley rat at 15 mg/kg, po administered as single dose measured upto 24 hrs by LC-MS/MS analysis; type: ADME, organism-based; conditions: in vivo
[15] = Cytotoxicity against human Huh7.5 cells carrying HCV subgenomic replicons assessed as reduction in cell viability incubated for 96 hrs by MTT assay; type: toxicity, cell-based, Huh-7.5
[16] = tested on: Hepatitis C virus; experiment: Antiviral activity against HCVcc infected in human Huh7.5 cells assessed as inhibition of viral replication; type: functional, organism-based, Hepacivirus hominis
[17] = AUC (0 to infinity) in Sprague-Dawley rat at 15 mg/kg, po administered as single dose measured upto 24 hrs by LC-MS/MS analysis; type: ADME, organism-based; design: route oral, dose 15 mg/kg, time <=24; conditions: in vivo
[18] = Plasma concentration in Sprague-Dawley rat at 15 mg/kg, po administered as single dose measured up to 24 hrs by LC-MS/MS analysis; type: ADME, organism-based
[19] = MRT in Sprague-Dawley rat at 15 mg/kg, po administered as single dose measured upto 24 hrs by LC-MS/MS analysis; type: ADME, organism-based; conditions: in vivo
[20] = tested on: Hepatitis C virus; experiment: Antiviral activity against HCV infected in human Huh7.5 cells carrying HCV subgenomic replicons assessed as inhibition of viral replication; type: functional, organism-based, Hepacivirus hominis
[21] = tested on: Hepacivirus hominis; experiment: Binding affinity to HCV E1 protein at 12.5 to 200 uM by SPR analysis; conditions: dose 12.5-200 µM
[22] = Cytotoxicity against human Huh7.5 cells infected with HCVcc assessed as reduction in cell viability incubated for 96 hrs by MTT assay; type: toxicity, cell-based, Huh-7.5
[23] = Cmax in Sprague-Dawley rat at 15 mg/kg, po administered as single dose measured upto 24 hrs by LC-MS/MS analysis; type: ADME, organism-based; design: route oral, dose 15 mg/kg, time <=24; conditions: in vivo
[24] = Half life in Sprague-Dawley rat at 15 mg/kg, po administered as single dose measured upto 24 hrs by LC-MS/MS analysis; type: ADME, organism-based; conditions: in vivo

## CC(c1ccccc1)N1CCN(Cc2cc(N3CCCN(C)CC3)ccc2C#N)CC1 (centres undefined)
[1]
  EC50: 956 nM
[2]
  CC50 at 96 h: 31300 nM
[3]; read-out: Ratio CC50/EC50
  selectivity ratio: 33

## N#Cc1ccc(NCCCn2ccnc2)cc1CN1CCN(C(c2ccccc2)c2ccc(Cl)cc2)CC1 (centres undefined)
[1]
  EC50: 220 nM
[2]
  CC50 at 96 h: 5380 nM
[3]; read-out: Ratio CC50/EC50
  selectivity ratio: 24

## CN(C)CCN(C)c1ccc(C#N)c(CN2CCN(C(c3ccccc3)c3ccc(Cl)cc3)CC2)c1 (centres undefined)
[1]
  EC50: 4 nM
[2]
  CC50 at 96 h: 5660 nM
[4]
  Activity: Active
[5]
  Activity: inactive
[6]
  Activity: inactive
[7]
  Activity: inactive
[8]
  selectivity ratio: 649
[9]
  Activity: inactive
[10]
  Activity: Active
[11]
  Activity: inactive
[12]
  Activity: Active
[3]; read-out: Ratio CC50/EC50
  selectivity ratio: 1410
[13]
  Activity: Active

## CNCCN(C)CCN(C)c1ccc(C#N)c(CN2CCN(C(c3ccccc3)c3ccc(Cl)cc3)CC2)c1 (centres undefined)
[1]
  EC50: 95 nM
[2]
  CC50 at 96 h: 4710 nM
[3]; read-out: Ratio CC50/EC50
  selectivity ratio: 49

## CN(C)CCN(C)c1ccc(C#N)c(CN2CCN([C@@H](c3ccccc3)c3ccc(Cl)cc3)CC2)c1
[1]
  EC50: 16 nM
[2]
  CC50 at 96 h: 8780 nM
[3]; read-out: Ratio CC50/EC50
  selectivity ratio: 549

## CN1CCCN(c2ccc(C(F)(F)F)c(CN3CCN(C(c4ccc(F)cc4)c4ccc(F)cc4)CC3)c2)CC1
[1]
  EC50: 7 nM
[2]
  CC50 at 96 h: 1450 nM
[3]; read-out: Ratio CC50/EC50
  selectivity ratio: 206

## CN1CCCN(c2ccc(C#N)c(CN3CCN(C(c4ccc(F)cc4)c4ccc(F)cc4)CC3)c2)CC1
[14]
  Tmax: 2.69 h
[1]
  EC50: 5 nM
[15]
  CC50 at 96 h: 3950 nM
[16]
  EC50: 2.89 nM
[2]
  CC50 at 96 h: 6240 nM
[4]
  Activity: Active
[5]
  Activity: inactive
[17]
  AUC(0-inf): 639 ng·h/mL
[6]
  Activity: inactive
[18]
  concentration at 24 h: 4.98 ng/mL
[19]
  MRT: 9.43 h
[20]
  EC50: > 1600 nM
[7]
  Activity: inactive
[8]
  selectivity ratio: 1140
[21]
  Activity: Active
[9]
  Activity: inactive
[10]
  Activity: Active
[11]
  Activity: inactive
[22]
  CC50 at 96 h: 3310 nM
[12]
  Activity: Active
[3]; read-out: Ratio CC50/EC50
  selectivity ratio: 1130
[13]
  Activity: Active
[23]
  Cmax: 78 ng/mL
[24]
  half-life: 5.66 h

## CN1CCCN(c2ccc(C#N)c(CN3CCN([C@@H](c4ccccc4)c4ccc(Cl)cc4)CC3)c2)CC1
[1]
  EC50: 55 nM
[2]
  CC50 at 96 h: > 20000 nM
[3]; read-out: Ratio CC50/EC50
  selectivity ratio: > 364

## CN(C)CCN(C)c1ccc(C#N)c(CN2CCN(C(c3ccc(Cl)cc3)c3ccc(Cl)cc3)CC2)c1
[1]
  EC50: 3 nM
[2]
  CC50 at 96 h: 3330 nM

## CN1CCCN(c2ccc(C(F)(F)F)c(CN3CCN(c4ccc(Cl)cc4)CC3)c2)CC1
[1]
  EC50: 3 nM
[2]
  CC50 at 96 h: 2560 nM
[3]; read-out: Ratio CC50/EC50
  selectivity ratio: 855

## CN(C)CCN(C)c1ccc(C#N)c(CN2CCN(C(c3ccccc3)c3ccccc3)CC2)c1
[1]
  EC50: 45 nM
[2]
  CC50 at 96 h: > 20000 nM
[3]; read-out: Ratio CC50/EC50
  selectivity ratio: > 444

## N#Cc1ccc(NCCCn2ccnc2)cc1CN1CCN(C(c2ccc(Cl)cc2)c2ccc(Cl)cc2)CC1
[1]
  EC50: 110 nM
[2]
  CC50 at 96 h: > 20000 nM
[3]; read-out: Ratio CC50/EC50
  selectivity ratio: > 182

## CC(C)OC(=O)[C@H](C)N[P@](=O)(OC[C@H]1O[C@@H](n2ccc(=O)[nH]c2=O)[C@](C)(F)[C@@H]1O)Oc1ccccc1 [SOFOSBUVIR]
[1]
  EC50: 82 nM
[15]
  CC50 at 96 h: 121000 nM
[16]
  EC50: 129 nM
[2]
  CC50 at 96 h: > 200000 nM
[4]
  Activity: inactive
[20]
  EC50: 180 nM
[8]
  selectivity ratio: 1330
[21]
  Activity: inactive
[22]
  CC50 at 96 h: 171000 nM
[3]; read-out: Ratio
  selectivity ratio: > 3280
[3]; read-out: Ratio CC50/EC50
  selectivity ratio: > 2440

## CN(C)CCN(C)c1ccc(C#N)c(CN2CCN(Cc3ccc(Cl)cc3)CC2)c1
[1]
  EC50: 1040 nM
[2]
  CC50 at 96 h: 18100 nM
[3]; read-out: Ratio CC50/EC50
  selectivity ratio: 17

## CN1CCCN(c2ccc(C(F)(F)F)c(CN3CCN(C(c4ccccc4)c4ccc(Cl)cc4)CC3)c2)CC1 (centres undefined)
[1]
  EC50: 83 nM
[2]
  CC50 at 96 h: 1290 nM
[3]; read-out: Ratio CC50/EC50
  selectivity ratio: 15

## CC(c1ccccc1)N1CCN(Cc2cc(N(C)CCN(C)C)ccc2C#N)CC1 (centres undefined)
[1]
  EC50: 1030 nM
[2]
  CC50 at 96 h: 44100 nM
[3]; read-out: Ratio CC50/EC50
  selectivity ratio: 43

## CN1CCCN(c2ccc(C#N)c(CN3CCN(c4ccc(Cl)cc4)CC3)c2)CC1
[1]
  EC50: 110 nM
[2]
  CC50 at 96 h: 9590 nM
[3]; read-out: Ratio CC50/EC50
  selectivity ratio: 87
